ChEMBL document CHEMBL4823249, “Discovery of a Pyrimidinedione Derivative as a Potent and Orally Bioavailable Axl Inhibitor” (J Med Chem, 2021)
The source made the active and inactive calls. The calls are words filed in the database; no cut-off is given here.

Key:
[1] = target: T1, Tyrosine-protein kinase receptor UFO (Homo sapiens, UniProt P30530); test: Inhibition of AXL (unknown origin) using poly [Glu, Tyr] 4:1 as substrate incubated for 60 mins in presence of ATP by ELISA
T1 sequence (P30530 whole entry): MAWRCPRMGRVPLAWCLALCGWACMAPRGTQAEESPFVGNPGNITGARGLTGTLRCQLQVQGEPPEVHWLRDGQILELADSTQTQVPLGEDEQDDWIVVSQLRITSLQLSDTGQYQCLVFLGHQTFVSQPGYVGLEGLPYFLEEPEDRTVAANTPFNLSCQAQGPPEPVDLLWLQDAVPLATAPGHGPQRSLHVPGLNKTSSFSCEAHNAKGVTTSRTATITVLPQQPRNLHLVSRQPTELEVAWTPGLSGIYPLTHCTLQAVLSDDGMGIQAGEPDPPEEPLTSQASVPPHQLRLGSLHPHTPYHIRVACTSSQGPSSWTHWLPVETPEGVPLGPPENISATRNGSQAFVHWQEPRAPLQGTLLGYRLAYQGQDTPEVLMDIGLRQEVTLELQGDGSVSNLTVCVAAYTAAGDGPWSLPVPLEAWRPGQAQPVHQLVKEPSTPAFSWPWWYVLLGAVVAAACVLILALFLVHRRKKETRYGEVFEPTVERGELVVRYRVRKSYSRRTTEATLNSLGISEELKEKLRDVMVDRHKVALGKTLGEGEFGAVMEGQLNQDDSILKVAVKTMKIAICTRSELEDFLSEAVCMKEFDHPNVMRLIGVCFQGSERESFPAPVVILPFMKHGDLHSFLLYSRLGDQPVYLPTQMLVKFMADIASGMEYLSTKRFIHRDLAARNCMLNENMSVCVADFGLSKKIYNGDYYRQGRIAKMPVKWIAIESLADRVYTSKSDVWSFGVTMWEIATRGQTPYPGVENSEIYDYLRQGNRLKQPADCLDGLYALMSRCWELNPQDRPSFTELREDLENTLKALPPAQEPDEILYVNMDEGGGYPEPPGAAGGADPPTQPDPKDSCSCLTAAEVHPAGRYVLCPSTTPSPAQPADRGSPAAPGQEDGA

[2] = AUC(0 to t) in ICR mouse at 1 mg/kg, iv measured upto 24 hrs by LC-MS analysis; type: ADME, organism-based; set-up: route intravenous, dose 1 mg/kg, time <=24; details: in vivo
[3] = target: Tyrosine-protein kinase Mer (Homo sapiens, UniProt Q12866); test: Inhibition of recombinant human MER (557 to 882 residues) using GGMEDIYFEFMGG as substrate incubated for 40 mins in presence of [gamma-33ATP by scintillation counting based radiometry assay
Sequence of Tyrosine-protein kinase Mer (Q12866 whole entry, the tested form may be a part): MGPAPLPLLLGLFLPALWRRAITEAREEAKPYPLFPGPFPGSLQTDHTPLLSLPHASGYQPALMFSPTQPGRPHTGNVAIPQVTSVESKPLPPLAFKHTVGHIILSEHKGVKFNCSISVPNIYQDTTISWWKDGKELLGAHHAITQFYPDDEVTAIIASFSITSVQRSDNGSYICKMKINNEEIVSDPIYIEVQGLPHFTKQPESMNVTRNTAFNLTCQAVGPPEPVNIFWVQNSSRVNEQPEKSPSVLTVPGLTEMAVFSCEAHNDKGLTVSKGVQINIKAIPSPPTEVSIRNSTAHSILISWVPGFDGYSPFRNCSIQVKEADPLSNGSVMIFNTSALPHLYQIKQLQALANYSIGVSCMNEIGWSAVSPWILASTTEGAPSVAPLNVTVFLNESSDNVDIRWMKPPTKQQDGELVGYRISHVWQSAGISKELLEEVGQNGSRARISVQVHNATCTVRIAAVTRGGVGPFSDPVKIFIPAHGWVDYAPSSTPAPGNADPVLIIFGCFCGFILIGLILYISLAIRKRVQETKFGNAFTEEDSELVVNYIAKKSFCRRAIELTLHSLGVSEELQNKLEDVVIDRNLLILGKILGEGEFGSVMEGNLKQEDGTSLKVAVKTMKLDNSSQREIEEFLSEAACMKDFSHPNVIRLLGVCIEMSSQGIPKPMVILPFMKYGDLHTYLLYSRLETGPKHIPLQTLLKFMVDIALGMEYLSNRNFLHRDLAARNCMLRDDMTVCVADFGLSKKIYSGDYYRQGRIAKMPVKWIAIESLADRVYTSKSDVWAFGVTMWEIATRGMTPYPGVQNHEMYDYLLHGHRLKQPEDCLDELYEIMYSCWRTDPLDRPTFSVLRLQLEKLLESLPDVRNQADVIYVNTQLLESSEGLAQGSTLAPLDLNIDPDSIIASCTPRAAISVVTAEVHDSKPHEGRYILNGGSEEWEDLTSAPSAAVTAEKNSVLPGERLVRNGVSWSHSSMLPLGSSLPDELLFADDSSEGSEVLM

[4] = target: Platelet-derived growth factor receptor beta (Homo sapiens, UniProt P09619); test: Inhibition of human PDGFRbeta (557 to end residues) using poly(Glu, Tyr) 4:1 as substrate measured after 40 mins in presence of [gamma33P]ATP by scintillation counting based radiometry assay
Sequence of Platelet-derived growth factor receptor beta (P09619 whole entry): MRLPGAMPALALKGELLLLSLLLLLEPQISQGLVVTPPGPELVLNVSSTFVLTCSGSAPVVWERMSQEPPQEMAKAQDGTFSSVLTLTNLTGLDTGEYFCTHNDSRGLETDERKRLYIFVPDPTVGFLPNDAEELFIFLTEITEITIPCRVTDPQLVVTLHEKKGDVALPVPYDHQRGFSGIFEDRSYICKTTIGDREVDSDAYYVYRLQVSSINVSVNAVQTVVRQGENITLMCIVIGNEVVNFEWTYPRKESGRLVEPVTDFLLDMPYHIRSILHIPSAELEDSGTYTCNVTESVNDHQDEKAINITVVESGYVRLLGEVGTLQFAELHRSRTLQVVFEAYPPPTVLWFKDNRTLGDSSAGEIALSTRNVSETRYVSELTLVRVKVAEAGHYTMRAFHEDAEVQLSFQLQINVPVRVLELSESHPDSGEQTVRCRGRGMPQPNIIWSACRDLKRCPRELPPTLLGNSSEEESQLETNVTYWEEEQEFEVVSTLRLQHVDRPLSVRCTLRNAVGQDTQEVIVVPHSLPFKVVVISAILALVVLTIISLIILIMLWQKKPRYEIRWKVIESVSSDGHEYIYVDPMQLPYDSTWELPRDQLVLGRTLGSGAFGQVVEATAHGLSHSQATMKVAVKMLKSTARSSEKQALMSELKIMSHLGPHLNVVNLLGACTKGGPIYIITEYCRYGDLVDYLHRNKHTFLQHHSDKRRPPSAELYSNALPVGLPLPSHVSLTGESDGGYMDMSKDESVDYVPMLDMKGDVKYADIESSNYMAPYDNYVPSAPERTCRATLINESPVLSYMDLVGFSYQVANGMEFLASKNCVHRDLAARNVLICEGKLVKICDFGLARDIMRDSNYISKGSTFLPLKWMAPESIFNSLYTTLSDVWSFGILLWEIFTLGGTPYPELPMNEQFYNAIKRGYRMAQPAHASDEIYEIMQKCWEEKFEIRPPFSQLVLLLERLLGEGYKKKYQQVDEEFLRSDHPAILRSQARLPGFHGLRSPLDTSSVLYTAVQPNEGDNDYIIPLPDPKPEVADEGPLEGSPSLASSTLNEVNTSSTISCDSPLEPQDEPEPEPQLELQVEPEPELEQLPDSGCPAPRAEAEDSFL

[5] = target: Serine/threonine-protein kinase A-Raf (Homo sapiens, UniProt P10398); test: Inhibition of recombinant human A-Raf (273 to end residues) using myelin basic protein as substrate incubated for 40 mins in presence of [gamma-33ATP] by scintillation counting based radiometry assay
Sequence of Serine/threonine-protein kinase A-Raf (P10398 whole entry): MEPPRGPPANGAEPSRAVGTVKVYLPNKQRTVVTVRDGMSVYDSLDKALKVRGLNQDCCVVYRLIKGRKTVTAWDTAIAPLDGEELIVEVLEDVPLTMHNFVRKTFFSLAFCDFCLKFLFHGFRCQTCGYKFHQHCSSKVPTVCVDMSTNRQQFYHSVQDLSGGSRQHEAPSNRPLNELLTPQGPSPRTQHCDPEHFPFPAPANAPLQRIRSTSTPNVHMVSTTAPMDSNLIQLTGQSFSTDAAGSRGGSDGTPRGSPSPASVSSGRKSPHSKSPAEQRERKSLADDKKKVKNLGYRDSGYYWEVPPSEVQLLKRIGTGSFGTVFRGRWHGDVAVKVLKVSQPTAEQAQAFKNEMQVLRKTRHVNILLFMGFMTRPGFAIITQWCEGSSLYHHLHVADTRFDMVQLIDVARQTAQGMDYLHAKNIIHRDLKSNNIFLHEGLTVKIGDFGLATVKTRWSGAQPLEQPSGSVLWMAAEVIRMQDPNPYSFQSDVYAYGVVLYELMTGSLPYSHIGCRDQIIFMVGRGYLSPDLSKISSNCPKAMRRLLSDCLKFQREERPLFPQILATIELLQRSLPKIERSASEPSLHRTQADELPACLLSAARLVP

[6] = Inhibition of recombinant human PKA using Kemptide as substrate measured after 40 mins in presence of [gamma33P]ATP by scintillation counting based radiometry assay
[7] = target: Calcium/calmodulin-dependent protein kinase type 1 (Homo sapiens, UniProt Q14012); test: Inhibition of recombinant human CaMK1 (2 to end residues) using […] as substrate incubated for 40 mins in presence of [gamma-33ATP] by scintillation counting based radiometry assay
Sequence of Calcium/calmodulin-dependent protein kinase type 1 (Q14012 whole entry): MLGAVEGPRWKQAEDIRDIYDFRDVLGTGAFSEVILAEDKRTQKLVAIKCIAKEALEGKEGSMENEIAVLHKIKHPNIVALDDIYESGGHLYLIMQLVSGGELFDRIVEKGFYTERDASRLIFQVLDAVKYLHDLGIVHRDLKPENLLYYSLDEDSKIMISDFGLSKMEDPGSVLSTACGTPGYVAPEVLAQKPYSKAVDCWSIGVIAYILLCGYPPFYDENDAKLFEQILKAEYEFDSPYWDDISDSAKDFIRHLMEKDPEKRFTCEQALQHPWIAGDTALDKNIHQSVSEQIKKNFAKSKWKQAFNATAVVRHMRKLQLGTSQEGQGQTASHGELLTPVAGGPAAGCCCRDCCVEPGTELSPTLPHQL

[8] = target: CDK2/Cyclin A2 (Homo sapiens, UniProt P24941); test: Inhibition of full length human recombinant CDK2/Cyclin A using histone H1 as substrate incubated for 40 mins in presence of [gamma-33ATP] by radiometric scintillation counting analysis; type: protein-complex assay
[9] = target: T2, Tyrosine-protein kinase receptor UFO (Mus musculus) (UniProt Q00993); test: Inhibition of AXL in mouse BaF3/TEL-AXL cells assessed as reduction in Gas6-induced phosphorylation of AKT at 0.5 to 50 nM preincubated for 2 hrs followed by Gas6 stimulation for 15 mins by Western blotting analysis; type: cell-based; details: dose 0.5-50 nM
T2 sequence (whole entry): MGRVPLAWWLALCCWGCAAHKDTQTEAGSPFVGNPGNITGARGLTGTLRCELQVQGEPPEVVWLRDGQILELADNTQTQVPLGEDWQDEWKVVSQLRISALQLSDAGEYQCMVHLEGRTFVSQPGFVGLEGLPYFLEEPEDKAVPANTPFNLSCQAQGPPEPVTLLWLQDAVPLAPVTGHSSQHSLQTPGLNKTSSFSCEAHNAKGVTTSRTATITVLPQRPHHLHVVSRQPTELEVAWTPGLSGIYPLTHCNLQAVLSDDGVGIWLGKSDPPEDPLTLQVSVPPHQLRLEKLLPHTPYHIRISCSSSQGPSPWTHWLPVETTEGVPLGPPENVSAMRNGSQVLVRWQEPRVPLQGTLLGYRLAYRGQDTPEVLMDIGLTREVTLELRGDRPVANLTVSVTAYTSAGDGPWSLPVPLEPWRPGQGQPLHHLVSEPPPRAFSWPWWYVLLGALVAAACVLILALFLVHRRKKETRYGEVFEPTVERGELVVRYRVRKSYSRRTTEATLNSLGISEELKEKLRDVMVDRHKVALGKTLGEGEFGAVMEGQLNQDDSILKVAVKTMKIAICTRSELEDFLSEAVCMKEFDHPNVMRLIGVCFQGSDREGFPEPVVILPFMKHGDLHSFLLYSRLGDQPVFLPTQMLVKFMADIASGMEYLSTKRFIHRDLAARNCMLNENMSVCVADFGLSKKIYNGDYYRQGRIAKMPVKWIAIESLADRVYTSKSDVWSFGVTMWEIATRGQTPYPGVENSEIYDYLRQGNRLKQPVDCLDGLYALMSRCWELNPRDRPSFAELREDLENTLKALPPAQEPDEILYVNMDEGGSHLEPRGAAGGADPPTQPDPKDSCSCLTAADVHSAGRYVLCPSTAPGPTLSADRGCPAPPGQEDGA

[10] = target: Hepatocyte growth factor receptor (Homo sapiens, UniProt P08581); test: Inhibition of MET signaling in human EBC1 cells assessed as reduction in phosphorylation of ERK after 2 hrs by Western blotting analysis; type: cell-based; details: EBC-1, dose 10-100 nM
Sequence of Hepatocyte growth factor receptor (P08581 whole entry): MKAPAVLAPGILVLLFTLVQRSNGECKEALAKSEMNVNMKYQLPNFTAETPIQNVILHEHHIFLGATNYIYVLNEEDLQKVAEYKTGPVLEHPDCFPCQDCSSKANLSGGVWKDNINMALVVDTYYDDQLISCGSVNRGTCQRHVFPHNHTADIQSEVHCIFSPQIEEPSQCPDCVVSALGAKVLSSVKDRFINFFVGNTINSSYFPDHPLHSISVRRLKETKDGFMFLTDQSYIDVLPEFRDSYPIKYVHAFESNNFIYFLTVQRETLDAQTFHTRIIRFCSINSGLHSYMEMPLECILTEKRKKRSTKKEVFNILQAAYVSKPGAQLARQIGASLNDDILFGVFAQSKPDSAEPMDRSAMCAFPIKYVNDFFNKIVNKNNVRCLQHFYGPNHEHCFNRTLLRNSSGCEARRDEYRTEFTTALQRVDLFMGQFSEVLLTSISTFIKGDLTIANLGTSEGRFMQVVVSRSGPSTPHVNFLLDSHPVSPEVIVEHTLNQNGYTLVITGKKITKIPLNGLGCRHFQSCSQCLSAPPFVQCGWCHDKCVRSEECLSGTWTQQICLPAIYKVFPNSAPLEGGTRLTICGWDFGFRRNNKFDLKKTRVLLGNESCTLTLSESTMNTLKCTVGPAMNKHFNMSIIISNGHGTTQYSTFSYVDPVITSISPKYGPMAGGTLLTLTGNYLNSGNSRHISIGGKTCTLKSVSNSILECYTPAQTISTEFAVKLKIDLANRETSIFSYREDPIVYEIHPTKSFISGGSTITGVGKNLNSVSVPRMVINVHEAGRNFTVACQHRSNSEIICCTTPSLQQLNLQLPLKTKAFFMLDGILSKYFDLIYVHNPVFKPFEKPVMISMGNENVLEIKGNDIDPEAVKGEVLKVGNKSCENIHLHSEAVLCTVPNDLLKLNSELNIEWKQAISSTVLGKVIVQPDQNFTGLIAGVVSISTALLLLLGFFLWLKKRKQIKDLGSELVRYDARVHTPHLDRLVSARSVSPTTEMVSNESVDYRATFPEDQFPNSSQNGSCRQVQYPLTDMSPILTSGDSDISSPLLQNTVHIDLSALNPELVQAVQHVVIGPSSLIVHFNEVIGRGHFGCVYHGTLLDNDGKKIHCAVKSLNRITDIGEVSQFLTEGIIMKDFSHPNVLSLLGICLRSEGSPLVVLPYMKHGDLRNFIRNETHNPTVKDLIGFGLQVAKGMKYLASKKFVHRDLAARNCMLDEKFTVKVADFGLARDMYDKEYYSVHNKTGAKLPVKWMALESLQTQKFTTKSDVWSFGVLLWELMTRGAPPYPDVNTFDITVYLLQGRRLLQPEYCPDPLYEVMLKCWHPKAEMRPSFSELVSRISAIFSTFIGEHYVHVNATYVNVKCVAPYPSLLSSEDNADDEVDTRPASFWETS

[11] = Antiproliferative activity against human JHH7 cells incubated for 72 hrs by SRB or CCK8 assay; type: functional, cell-based; details: JHH7, 72 h
[12] = system: MDA-MB-231; test: Antiproliferative activity against human MDA-MB-231 cells incubated for 72 hrs by SRB or CCK8 assay; type: functional, cell-based; details: MDA-MB-231, 72 h
[13] = system: KMS-11; test: Antiproliferative activity against human KMS-11 cells incubated for 72 hrs by SRB or CCK8 assay; type: functional, cell-based; details: KMS-11, 72 h
[14] = system: HCC4006; test: Antiproliferative activity against human HCC4006 cells incubated for 72 hrs by SRB or CCK8 assay; type: functional, cell-based; details: HCC4006, 72 h

## CC(C)n1cc(C(=O)Nc2ccc(Oc3ccnc(NC(=O)C4CC4)c3)c(F)c2)c(=O)n(-c2ccc(F)cc2)c1=O
[1]
  IC50: 0.0009 µM
[2]
  AUC(0-t) at 24 h: 7.01 µg·h/mL
[3]
  IC50: < 0.01 µM
[4]
  IC50: > 1 µM
[5]
  IC50: > 1 µM
[6]
  IC50: > 1 µM
[7]
  IC50: > 1 µM
[8]
  IC50: > 1 µM
[9]
  inhibition: Active
[10]
  inhibition: Dose-Dependent Effect
[11]
  IC50: > 10 µM
[12]
  IC50: > 10 µM
[13]
  IC50: > 10 µM
[14]
  IC50: > 10 µM
